As a reminder, the pEC50 is the negative decadic logarithm of the EC50, by convention in mol/L.

pEC50: −log10 of the molar value.

These results are taken from US8779158B2, “Trisubstituted pyrazoles as acetylcholine receptor modulators” (Janssen Pharmaceutica NV, priority 2008, dated 2014).

Assay [1] addresses T1, hα7-wt nAChR (Homo sapiens, UniProt P36544).
T1 construct: expressed in transfected cells
In words: Ca2+ flux imaging (FDSS) (Protocol B), potentiation of the choline response. It is filed as cell-based. Conditions: Ca2+ assay as described in D.1; for pEC50: "<5" = activity did not reach a top plateau at maximal concentration; for Emax: read-out: % Efficacy. Summed up:
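Cells expressing hα7-wt nAChR, loaded with fluo-4AM (2 μM final) in HBSS with 10 mM HEPES, 5 mM CaCl2, 0.1% BSA and probenecid; compound (0.01–30 μM) added up to 10 min before 100 μM choline. Peak fluorescence potentiation relative to choline alone (100%); EC50 from sigmoidal curve.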
For orientation: Calcium flux is commonly read through the fluorescence of an indicator in the cells.

The target in assay [2] is T2, hα7-wt nAChR-expressing GH4C1 cells (Homo sapiens, UniProt P36544).
T2 construct: expressed in transfected cells
Kind of assay: Patch-clamp current recording (whole-cell voltage clamp), potentiation of the choline current and PAM type. The format is cell-based. The arrangement: key: Type 0 compounds minimally enhance the effect size of the current elicited by 1 mM choline.; Type 1 compounds enhance the effect size of the current elicited by 1 mM choline but minimally alter the kinetics of the receptor.; Type 2 compounds enhance the effect size of the current elicited by 1 mM choline while reducing the rate and/or the extent of desensitization.; Type 3 compounds enhance the effect size of the current elicited by 1 mM choline. When tested at higher concentrations up to 10 μM they completely inhibit desensitization, in particular a 1 mM choline application of 250 milliseconds.; Type 4 compounds allow for an initial desensitization of the receptor followed by a re-opening of the receptor during agonist application. Conditions: 1 mM choline. How it is done:
The compounds of the present invention are classified as type 1-4, based on qualitative kinetic properties, as determined by whole-cell voltage-clamp recordings. This classification is based on the effect of an α7 PAM compound, as described hereinbefore, on the signal elicited by an agonist application. In particular, said agonist is choline at a concentration of 1 mM. In a preferred experimental setting, said α7 PAM compound and choline are simultaneously applied to the cell, as described hereinafter. Desensitization is defined as the closure of the receptor upon activation during the application of the agonist in whole-cell voltage-clamp electrophysiology measurements seen as the reduction of the […] current after initial activation by the agonist.
The definition of the PAM types 1-4 is described hereinafter: • Type 0 compounds minimally enhance the effect size of the current elicited by 1 mM choline. • Type 1 compounds enhance the effect size of the current elicited by 1 mM choline but minimally alter the kinetics of the receptor. In particular, the rate and the extent of desensitization, elicited by the agonist, is not affected. The compound-modulated response to 1 mM choline, therefore, is a close to linear scaling of the 1 mM choline response in absence of the α7 PAM compound. • Type 2 compounds enhance the effect size of the current elicited by 1 mM choline while reducing the rate and/or the extent of desensitization. • Type 3 compounds enhance the effect size of the current elicited by 1 mM choline. […] At low-potency concentrations of the α7 PAM compound, the agonist-induced activation, which is followed by desensitization, can still be separated from the compound-induced re-opening as an initial inward current-maximum. At higher potency concentrations of the α7 PAM compound, the re-opening occurs faster than the closure due to desensitization so that the initial current-maximum disappears.
A compound was considered to have interesting PAM-like activity when the potentiation of the peak current was at least 200% compared to the control choline response (=100%). Such compounds are classified as belonging to a particular PAM type in the Experimental Part. Compounds not meeting the condition are not classified as belonging to a particular PAM-type.
The compounds also have a potentiating effect on the response to choline when measured by whole-cell patch clamp electrophysiology in GH4C1 cells stably over-expressing the human wild-type α7 receptor.
Patch-Clamp Current Recording
Patch-clamp recording from mammalian cells has provided a powerful means of assessing the function of membrane-bound proteins thought to be subunits of ligand-gated ion channels. Activation of such proteins by endogenous or exogenous ligands cause opening of a pore associated with the receptor through which ions flow down their electrochemical gradient. In the case of the hα7-wt nAChR-expressing GH4C1 recombinant cell line the preferential permeability to calcium of this receptor means that calcium flows into the cell upon activation by ACh, choline and other nicotinic ligands giving rise to a calcium current. Since this receptor rapidly desensitizes in the presence of agonist it is important an application system is used which is capable of very rapid switching of solutions (<100 ms) to prevent partial or full desensitisation of receptor responses coincident with the time of agonist application. Consequently, a second convenient technique to assess the enhancement of nicotinic efficacy is patch-clamp recording from hα7-wt nAChR-expressing GH4C1 cells coupled with a rapid-application system.
• The external recording solution consisted of 152 mM NaCl, 5 mM KCl, 1 mM MgCl2, 1 mM Calcium, 10 mM HEPES; pH 7.3. […]
(The patch-clamp technique gives a direct electrical read-out from membranes.)

T1 sequence (P36544 23-502): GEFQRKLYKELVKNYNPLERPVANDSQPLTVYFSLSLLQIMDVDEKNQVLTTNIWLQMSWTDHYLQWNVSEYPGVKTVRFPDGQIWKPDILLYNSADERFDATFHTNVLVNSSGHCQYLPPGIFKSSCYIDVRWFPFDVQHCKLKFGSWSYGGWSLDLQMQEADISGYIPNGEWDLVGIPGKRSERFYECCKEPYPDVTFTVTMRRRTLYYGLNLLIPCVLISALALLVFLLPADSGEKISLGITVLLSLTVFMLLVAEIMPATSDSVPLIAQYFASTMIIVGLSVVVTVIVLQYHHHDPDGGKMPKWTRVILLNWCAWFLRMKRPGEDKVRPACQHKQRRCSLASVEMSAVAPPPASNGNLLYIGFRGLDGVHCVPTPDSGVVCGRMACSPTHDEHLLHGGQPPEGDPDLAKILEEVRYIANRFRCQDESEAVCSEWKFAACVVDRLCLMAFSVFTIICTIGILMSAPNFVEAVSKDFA
T2 sequence (P36544 23-502): as above

Consider `CCNc1cc(-c2cc(Nc3ccc(F)c(F)c3)nn2C[C@@H](O)CC)ccn1` [compound 65], for which, in assay [1], the pEC50 was 6.24 and the Emax worked out at 1000%. Moreover, the PAM type in assay [2] is on record as 2.

`CNC(=O)Cn1nc(Nc2cccc(C(F)(F)F)c2)cc1-c1ccnc(C)c1` [compound 32]: the pEC50 in assay [1] was 5.37. Also, the PAM type in assay [2] worked out at 2.

`Cc1ccnc(-c2cc(Nc3ccc(F)c(C(F)(F)F)c3)nn2CCC(=O)N(C)C)c1` [compound 23]: in assay [1], the pEC50 was 6.20. In addition, the PAM type in assay [2] is on record as 2.

On to `CCNC(=O)Cn1nc(Nc2cccc(C(F)(F)F)c2)cc1-c1ccnc(C)c1` [compound 36], for which the negative-log EC50 (pEC50) in assay [1] is 5.72. Further, the PAM type in assay [2] is recorded as 2.

Take `CCNC(=O)Cn1nc(Nc2cccc(Cl)c2F)cc1-c1cc(C)nc(C)c1` [compound 154]: in assay [1], the pEC50 is 6.28 and the Emax was 901%. For the same compound, the PAM type in assay [2] is recorded as 2.

Turning to `CNC(=O)Cn1nc(Nc2ccc(F)c(F)c2)cc1-c1cc(C)nc(C)c1` [compound 55], in assay [1], the pEC50 is 5.77. Further, in assay [2], the PAM type came out at 2.

As to `CNC(=O)Cn1nc(Nc2ccc3c(c2)OC(F)(F)O3)cc1-c1ccnc(COC)c1` [compound 112], the pEC50 in assay [1] was 5.82. Further, the PAM type in assay [2] worked out at 4.

Turning to `Cc1cc(-c2cc(Nc3ccc(F)c(F)c3F)nn2CC(=O)NCC2CC2)ccn1` [compound 164], in assay [1], the pEC50 was 6.51 and the Emax was 482%. Besides, in assay [2], the PAM type stood at 2.

`Cc1cnccc1-c1cc(Nc2cc(F)cc(C(F)(F)F)c2)nn1CCC(=O)N(C)C` [compound 9, 3-[[3-fluoro-5-(trifluoromethyl)phenyl]amino]-N,N-dimethyl-5-(3-methyl-4-pyridinyl)-1H-pyrazole-1-propanamide]: the negative-log EC50 (pEC50) in assay [1] is 5.99. Also, the PAM type in assay [2] worked out at 4.

Consider `CNC(=O)Cn1nc(Nc2cccc(OC(F)(F)F)c2)cc1-c1ccnc(C)c1` [compound 35], for which the negative logarithm of the EC50 (pEC50) in assay [1] was 5.61. Moreover, the PAM type in assay [2] is recorded as 2.

Consider `CCNC(=O)Cn1nc(Nc2cc(F)c(F)c(F)c2)cc1-c1ccnc(C)c1` [compound 128], for which, in assay [1], the negative logarithm of the EC50 (pEC50) is 6.07 and the Emax was 643%. Further, in assay [2], the PAM type is given as 2.

As to `CC[C@H](O)Cn1nc(Nc2ccc(F)c(F)c2)cc1-c1cc(C)nc(C)c1` [compound 59], the pEC50 in assay [1] was 6.21. The PAM type in assay [2] was determined as 1.

As to `Cc1cc(-c2cc(Nc3cccc(Cl)c3)nn2CC(=O)NC2CC2)ccn1` [compound 123], the negative-log EC50 (pEC50) in assay [1] is 6.00. Besides, in assay [2], the PAM type was determined as 2.

For the compound `CNC(=O)Cn1nc(Nc2ccc3c(c2)OC(F)(F)O3)cc1-c1ccncc1` [compound 86], in assay [1], the negative-log EC50 (pEC50) was 5.64. Moreover, the PAM type in assay [2] was determined as 3.

As to `CNC(=O)Cn1nc(Nc2cccc(C(F)(F)F)c2)cc1-c1ccc2c(c1)OCCO2` [compound 76], the pEC50 in assay [1] was 6.46. Moreover, the PAM type in assay [2] was determined as 4.

For `CCNC(=O)Cn1nc(Nc2cccc(Cl)c2F)cc1-c1ccnc(C)c1` [compound 137], in assay [1], the pEC50 was 6.20 and the Emax came to 946%. In assay [2], the PAM type came to 2.

As to `CCNC(=O)Cn1nc(Nc2ccc(F)c(C(F)(F)F)c2)cc1-c1ccc(C)nc1` [compound 27], the pEC50 in assay [1] was 5.94. Further, in assay [2], the PAM type was determined as 2.

As to `Cc1cc(-c2cc(Nc3cccc(Cl)c3)nn2CC(=O)NCC2CC2)ccn1` [compound 163], the pEC50 in assay [1] is 6.49. For the same compound, the PAM type in assay [2] came out at 2.

For `CCNC(=O)Cn1nc(Nc2ccc(F)c(F)c2F)cc1-c1ccnc(C)c1` [compound 125], in assay [1], the negative-log EC50 (pEC50) was 6.03 and the Emax was 972%. Further, the PAM type in assay [2] is 2.

Regarding `Cc1cc(-c2cc(Nc3ccc(F)c(C(F)(F)F)c3)nn2C[C@H](C)O)ccn1` [compound 43], in assay [1], the negative logarithm of the EC50 (pEC50) is 5.84 and the Emax came out at 700%. Moreover, the PAM type in assay [2] was determined as 1.

Regarding `Cc1cc(-c2cc(Nc3ccc4c(c3)OC(F)(F)O4)nn2CCC(=O)N(C)C)ccn1` [compound 94], in assay [1], the pEC50 was 6.62. The PAM type in assay [2] was 2.

Regarding `C[C@H](O)Cn1nc(Nc2cc(F)c(F)c(F)c2)cc1-c1ccc2c(c1)OCCO2` [compound 85], in assay [1], the negative logarithm of the EC50 (pEC50) is 5.96 and the Emax was 400%. Moreover, the PAM type in assay [2] is listed as 0.

Turning to `CC[C@H](O)Cn1nc(Nc2cccc(Cl)c2)cc1-c1cc(C)nc(C)c1` [compound 58], the pEC50 in assay [1] was 6.12. Moreover, the PAM type in assay [2] is 1.

Regarding `CCNC(=O)Cn1nc(Nc2ccc(F)c(C(F)(F)F)c2)cc1-c1cc(C)nc(C)c1` [compound 152], in assay [1], the pEC50 is 6.33 and the Emax stood at 856%. Further, in assay [2], the PAM type is reported as 2.

In the case of `CNC(=O)Cn1nc(Nc2cc(F)c(F)c(F)c2)cc1-c1ccc2c(c1)OCCO2` [compound 74], the negative-log EC50 (pEC50) in assay [1] is 6.60. Moreover, in assay [2], the PAM type turned out to be 2.

For `COc1cc(Cl)cc(Nc2cc(-c3ccnc(C)c3)n(CCC(=O)N(C)C)n2)c1` [compound 126], the pEC50 in assay [1] was 6.04. In addition, in assay [2], the PAM type stood at 2.

Consider `COc1ccc(-c2cc(Nc3ccc(F)c(F)c3)nn2CCC(=O)N(C)C)c(Cl)c1` [compound 12], for which the pEC50 in assay [1] was 6.18. Besides, the PAM type in assay [2] stood at 0.

Take `Cc1cc(-c2cc(Nc3ccc4c(c3)OC(F)(F)O4)nn2CC(=O)NC2CCC2)cc(C)n1` [compound 158]: in assay [1], the negative logarithm of the EC50 (pEC50) is 6.44 and the Emax was 509%. For the same compound, the PAM type in assay [2] is given as 1.

As for `Cc1cc(-c2cc(Nc3ccc(F)c(F)c3)nn2CCC(=O)N(C)C)cc(C)n1` [compound 119], the pEC50 in assay [1] was 5.96. Further, in assay [2], the PAM type is listed as 2.

Regarding `CNC(=O)Cn1nc(Nc2cccc(OC(F)(F)F)c2)cc1-c1ccc2c(c1)OCCO2` [compound 77], in assay [1], the pEC50 is 6.38. Further, in assay [2], the PAM type was 4.

Regarding `Cc1cc(-c2cc(Nc3cccc(Cl)c3F)nn2CCC(=O)N(C)C)ccn1` [compound 124], the pEC50 in assay [1] is 6.01. In addition, the PAM type in assay [2] came out at 1.

`CNC(=O)Cn1nc(Nc2ccc3c(c2)OC(F)(F)O3)cc1-c1cc(C)nc(C)c1` [compound 130]: in assay [1], the pEC50 is 6.09 and the Emax amounted to 632%. Further, the PAM type in assay [2] was 2.

For the compound `COc1cc(Nc2cc(-c3ccnc(C)c3)n(CC(=O)NCC3CC3)n2)cc(C(F)(F)F)c1` [compound 131], the negative logarithm of the EC50 (pEC50) in assay [1] was 6.09. For the same compound, the PAM type in assay [2] is 2.

For `CC[C@H](O)Cn1nc(Nc2ccc(F)c(F)c2)cc1-c1ccnc(C)c1` [compound 45], in assay [1], the pEC50 was 5.91 and the Emax was 800%. For the same compound, in assay [2], the PAM type turned out to be 1.

Turning to `CNC(=O)Cn1nc(Nc2ccc3c(c2)OC(F)(F)O3)cc1-c1ccnc(C)c1` [compound 92], in assay [1], the pEC50 is 5.73. For the same compound, the PAM type in assay [2] was found to be 2.

On to `CC[C@H](O)Cn1nc(Nc2cccc(Cl)c2)cc1-c1ccnc(COC)c1` [compound 136], for which the pEC50 in assay [1] is 6.19. For the same compound, in assay [2], the PAM type turned out to be 1.
